# Experimental data as given in patent USRE48461E1, “Modulation of androgen receptor expression” (Ionis Pharmaceuticals, Inc., priority 2012, dated 2021).
# Oligonucleotides are written 5' to 3', each unit as a sugar letter and its base; * is a phosphorothioate linkage, no mark a phosphodiester; rarer units and linkages stand in square brackets, end groups in braces. Plain capitals give the bases only. k = constrained ethyl (cEt); [5mC] = 5-methylcytosine; d = 2'-deoxy (DNA)
# Experiments:
# C4-2B MR cells = experiment: Proliferation of MDV3100-resistant C4-2B cells (CellTiter 96); format: cell-based, human; conditions: 6 days
# In short: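 Antisense oligonucleotides were added to the culture medium at 0.04, 0.20, 1.00 and 5.00 μM, with a non-targeting oligonucleotide as negative control. After 6 days of treatment, proliferation was read with CellTiter 96 AQueous One. Values are percent inhibition relative to untreated cells.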
# KLK2 mRNA = KLK2 mRNA (AR target gene) in C4-2B MR cells; format: cell-based, human
# AR mRNA = AR mRNA levels in LMR20 cells (with/without DHT or R1881); format: cell-based, human; conditions: with or without DHT/R1881
# Protocol: LMR20 cells were plated at 1,500 cells per well in phenol red-free medium with CSS.
# total AR mRNA = experiment: Total (full-length) AR mRNA in C4-2B MR cells, free uptake; format: cell-based, human; conditions: 24 hrs; for Percent inhibition of full-length AR mRNA in C4-2B MR cells: free uptake
# In short: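 Cells grown in RPMI1640 with 10% FBS received antisense oligonucleotides at 0.04, 0.20, 1.00 and 5.00 μM in the medium by free uptake, no transfection agent. After 24 hrs, total AR mRNA quantified by real-time qPCR with primer probe set RTS3559.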
# MDA-MB-453 tumor = experiment: Tumor volume in MDA-MB-453 breast cancer orthotopic model; format: in vivo, NSG mice; conditions: Study 2, MDA-MB-453 model, NSG mice, 50 mg/kg s.c. 5 days per week for 2 weeks
# PSA mRNA = experiment: PSA expression in LNCaP cells (complete, CSS+DHT medium); format: cell-based, human; conditions: for Percent inhibition of PSA expression in LNCaP cells cultured in CSS + DHT medium: CSS + DHT (1 nM) medium, 48 hrs; for Percent inhibition of PSA expression in LNCaP cells cultured in complete medium: 48 hours
# Protocol: Cells were plated at 1,000 cells per well. […] ISIS 549148 was included as a negative control. […] After an incubation period of 48 hours, RNA levels of AR, PSA and TMPRSS2 were measured.
# Cells were plated at 2,000 cells per well and cultured in phenol red-free RPMI supplemented with 5% charcoal stripped serum (Gibco) media for 16 hours. […] ISIS 549148 was included as a negative control. […] After an incubation period of 4 hrs, DHT was added to the medium to a final concentration of 1 nM as indicated. RNAs were collected 48 hrs later and levels of AR, PSA and TMPRSS2 were measured. In the absence of DHT, AR expression in LNCaP cells was 95%, PSA expression was 7% and TMPRSS2 expression was 24% compared to the untreated control.
# TMPRSS2 mRNA = experiment: TMPRSS2 expression in C4-2B cells (Example 30); format: cell-based, human; conditions: 48 hrs
# Protocol: Cells were plated at 1,000 cells per well. […] ISIS 549148 was included as a negative control. […] After an incubation period of 48 hrs, RNA levels of AR, PSA and TMPRSS2 were measured.
# Cells were plated at 2,000 cells per well and cultured in CSS media with 1 nM DHT. […] ISIS 549148 was included as a negative control. […] After an incubation period of 48 hrs, RNA levels of AR, PSA and TMPRSS2 were measured. In the absence of DHT, AR expression in C4-2 cells was 188%, PSA expression was 43% and TMPRSS2 expression was 27% compared to the untreated control.
# LNCaP cells = experiment: LNCaP cell proliferation, ASO in combination with MDV3100 (Example 20); format: cell-based, human; conditions: for Proliferation (% untreated control) in LNCaP without MDV-3100: 5 days
# Protocol: LNCaP cells were plated at 1,000 cells per well. […] ISIS 549148 was included as a negative control. […] After a treatment period of 5 days, the proliferative capacity of the cancer cells was measured with CellTiter 96® AQueous One or CellTiter-Glo® Solution Cell Proliferation kit (Promega), following the manufacturer's instructions. […]
# 22RV1 cells = experiment: 22RV1 cell proliferation with/without DHT (MTT); format: cell-based, human; conditions: 5 days; for Percent inhibition of 22RV1 cell proliferation: RNAiMAX
# Protocol: 22RV1cells were plated at 1,500 cells per well. […] Separate sets of cells, also treated with each of the antisense oligonucleotides, were treated with DHT added on day 1 at a final concentration of 1 nM. After a treatment period of 5 days, the proliferative ability of the cancer cells was measured using the standard MTT assay. Results are presented in Table 69 as percent inhibition of proliferation, relative to non-treated cells.
substance,measurement,setting,value
"GTTGATTTAATGGTTG (all phosphorothioate, sugars by position not given here; further chemistry not fully specified) [ISIS 549458]",proliferation of C4-2B MR cells,C4-2B MR cells; 0.04-5.00 μM,reduced proliferation of the cells in a dose dependent manner more extensively than treatment with ISIS 554221
same,AR target gene KLK2 mRNA levels,"KLK2 mRNA; C4-2B MR cells, 0.04-5.00 μM",reduced target gene levels in a dose dependent manner more extensively than treatment with ISIS 554221
same,AR mRNA levels in LMR20 cells,AR mRNA,"reduced AR mRNA levels in LMR20 cells, treated with or without either AR agonist, in a dose dependent manner relative to the baseline"
same,total AR transcript levels,"total AR mRNA; C4-2B MR cells, 0.04-5.00 μM free uptake",reduced total AR transcript levels in a dose dependent manner more extensively than treatment with ISIS 554221
"TTGATTTAATGGTTGC [ISIS 560131] (MOE and (S)-cEt gapmer chemistry, further chemistry not given here) [targets intron 1]",Tumor volumes,MDA-MB-453 tumor; Day 0,144
same,Tumor volumes,MDA-MB-453 tumor; Day 8,261
same,Tumor volumes,MDA-MB-453 tumor; Day 13,243
same,Tumor volumes,MDA-MB-453 tumor; Day 20,204
same,Tumor volumes,MDA-MB-453 tumor; Day 23,232
same,Tumor volumes,MDA-MB-453 tumor; Day 27,233
same,Tumor volumes,MDA-MB-453 tumor; Day 29,258
same,Percent inhibition of PSA expression in LNCaP cells cultured in CSS + DHT medium,PSA mRNA; 0.04 μM,10%
same,Percent inhibition of PSA expression in LNCaP cells cultured in CSS + DHT medium,PSA mRNA; 0.2 μM,21%
same,Percent inhibition of PSA expression in LNCaP cells cultured in CSS + DHT medium,PSA mRNA; 1 μM,21%
same,Percent inhibition of PSA expression in LNCaP cells cultured in CSS + DHT medium,PSA mRNA; 5.0 μM,72%
same,Percent inhibition of PSA expression in LNCaP cells cultured in complete medium,PSA mRNA; 0.04 μM,0%
same,Percent inhibition of PSA expression in LNCaP cells cultured in complete medium,PSA mRNA; 0.2 μM,60%
same,Percent inhibition of PSA expression in LNCaP cells cultured in complete medium,PSA mRNA; 1 μM,87%
same,Percent inhibition of PSA expression in LNCaP cells cultured in complete medium,PSA mRNA; 5.0 μM,90%
same,Percent inhibition of TMPRSS2 expression,"TMPRSS2 mRNA; CSS + DHT medium, 0.04 μM",0%
same,Percent inhibition of TMPRSS2 expression,"TMPRSS2 mRNA; CSS + DHT medium, 0.2 μM",34%
same,Percent inhibition of TMPRSS2 expression,"TMPRSS2 mRNA; CSS + DHT medium, 1 μM",60%
same,Percent inhibition of TMPRSS2 expression,"TMPRSS2 mRNA; CSS + DHT medium, 5.0 μM",76%
same,Percent inhibition of TMPRSS2 expression,"TMPRSS2 mRNA; complete medium, 0.04 μM",46%
same,Percent inhibition of TMPRSS2 expression,"TMPRSS2 mRNA; complete medium, 0.2 μM",71%
same,Percent inhibition of TMPRSS2 expression,"TMPRSS2 mRNA; complete medium, 1 μM",72%
same,Percent inhibition of TMPRSS2 expression,"TMPRSS2 mRNA; complete medium, 5.0 μM",75%
same,Proliferation (% untreated control) in LNCaP with 0.08 μM MDV-3100,LNCaP cells; ASO dose 0.04 μM + 0.08 μM MDV-3100,59 % untreated control
same,Proliferation (% untreated control) in LNCaP with 0.4 μM MDV-3100,LNCaP cells; ASO dose 0.04 μM + 0.4 μM MDV-3100,50 % untreated control
same,Proliferation (% untreated control) in LNCaP with 2.0 μM MDV-3100,LNCaP cells; ASO dose 0.04 μM + 2.0 μM MDV-3100,42 % untreated control
same,Proliferation (% untreated control) in LNCaP with […] MDV-3100,LNCaP cells; ASO dose 0.04 μM + […] MDV-3100,71 % untreated control
same,Proliferation (% untreated control) in LNCaP without MDV-3100,LNCaP cells; ASO dose 0.04 μM,76 % untreated control
same,Proliferation (% untreated control) in LNCaP with 0.08 μM MDV-3100,LNCaP cells; ASO dose 0.08 μM + 0.08 μM MDV-3100,99 % untreated control
same,Proliferation (% untreated control) in LNCaP with 0.4 μM MDV-3100,LNCaP cells; ASO dose 0.08 μM + 0.4 μM MDV-3100,68 % untreated control
same,Proliferation (% untreated control) in LNCaP with 2.0 μM MDV-3100,LNCaP cells; ASO dose 0.08 μM + 2.0 μM MDV-3100,45 % untreated control
same,Proliferation (% untreated control) in LNCaP with […] MDV-3100,LNCaP cells; ASO dose 0.08 μM + […] MDV-3100,103 % untreated control
same,Proliferation (% untreated control) in LNCaP without MDV-3100,LNCaP cells; ASO dose 0.08 μM,106 % untreated control
same,Proliferation (% untreated control) in LNCaP with 0.08 μM MDV-3100,LNCaP cells; ASO dose 0.2 μM + 0.08 μM MDV-3100,48 % untreated control
same,Proliferation (% untreated control) in LNCaP with 0.4 μM MDV-3100,LNCaP cells; ASO dose 0.2 μM + 0.4 μM MDV-3100,40 % untreated control
same,Proliferation (% untreated control) in LNCaP with 2.0 μM MDV-3100,LNCaP cells; ASO dose 0.2 μM + 2.0 μM MDV-3100,38 % untreated control
same,Proliferation (% untreated control) in LNCaP with […] MDV-3100,LNCaP cells; ASO dose 0.2 μM + […] MDV-3100,49 % untreated control
same,Proliferation (% untreated control) in LNCaP without MDV-3100,LNCaP cells; ASO dose 0.2 μM,50 % untreated control
same,Proliferation (% untreated control) in LNCaP with 0.08 μM MDV-3100,LNCaP cells; ASO dose 1.0 μM + 0.08 μM MDV-3100,27 % untreated control
same,Proliferation (% untreated control) in LNCaP with 0.4 μM MDV-3100,LNCaP cells; ASO dose 1.0 μM + 0.4 μM MDV-3100,26 % untreated control
same,Proliferation (% untreated control) in LNCaP with 2.0 μM MDV-3100,LNCaP cells; ASO dose 1.0 μM + 2.0 μM MDV-3100,23 % untreated control
same,Proliferation (% untreated control) in LNCaP with […] MDV-3100,LNCaP cells; ASO dose 1.0 μM + […] MDV-3100,25 % untreated control
same,Proliferation (% untreated control) in LNCaP without MDV-3100,LNCaP cells; ASO dose 1.0 μM,26 % untreated control
same,synergy with MDV3100,LNCaP cells; LNCaP cells,synergistic with MDV3100
same,"cell proliferation inhibited, combination","LNCaP cells; LNCaP cells, 0.04 μM ASO in combination with 0.08 μM MDV3100",41%
same,"inhibited cell proliferation, ASO alone","LNCaP cells; LNCaP cells, ASO alone at 0.04 μM",24%
same,Percent inhibition of 22RV1 cell proliferation,"22RV1 cells; +DHT (1 nM), ASO 1.34 nM",0%
same,Percent inhibition of 22RV1 cell proliferation,"22RV1 cells; +DHT (1 nM), ASO 4.0 nM",1%
same,Percent inhibition of 22RV1 cell proliferation,"22RV1 cells; +DHT (1 nM), ASO 13.4 nM",13%
same,Percent inhibition of 22RV1 cell proliferation,"22RV1 cells; +DHT (1 nM), ASO 40.0 nM",34%
same,22RV1 cell proliferation,22RV1 cells; with or without 1 nM DHT,"significantly inhibited prostate cancer cell proliferation even in the presence of AR activator, DHT, compared to the control"
same,Percent inhibition of 22RV1 cell proliferation,"22RV1 cells; −DHT, ASO 1.34 nM",0%
same,Percent inhibition of 22RV1 cell proliferation,"22RV1 cells; −DHT, ASO 4.0 nM",2%
same,Percent inhibition of 22RV1 cell proliferation,"22RV1 cells; −DHT, ASO 13.4 nM",29%
same,Percent inhibition of 22RV1 cell proliferation,"22RV1 cells; −DHT, ASO 40.0 nM",54%
same,AR mRNA levels in LMR20 cells,AR mRNA,"reduced AR mRNA levels in LMR20 cells, treated with or without either AR agonist, in a dose dependent manner relative to the baseline"
549372 (kA*kA*kG*dT*dT*dG*dT*dA*dG*dT*dA*dG*dT*k[5mC]*kG*k[5mC]) [compound 549372],Percent inhibition of C4-2B MR cell proliferation,C4-2B MR cells; 0.04 μM,0%
same,Percent inhibition of C4-2B MR cell proliferation,C4-2B MR cells; 0.20 μM,4%
same,Percent inhibition of C4-2B MR cell proliferation,C4-2B MR cells; 1.00 μM,25%
same,Percent inhibition of C4-2B MR cell proliferation,C4-2B MR cells; 5.00 μM,43%
same,Percent inhibition of KLK2 mRNA in C4-2B MR cells,KLK2 mRNA; 0.04 μM,14%
same,Percent inhibition of KLK2 mRNA in C4-2B MR cells,KLK2 mRNA; 0.20 μM,16%
same,Percent inhibition of KLK2 mRNA in C4-2B MR cells,KLK2 mRNA; 1.00 μM,57%
same,Percent inhibition of KLK2 mRNA in C4-2B MR cells,KLK2 mRNA; 5.00 μM,87%
same,Percent inhibition of full-length AR mRNA in C4-2B MR cells,total AR mRNA; 0.04 μM,35%
same,Percent inhibition of full-length AR mRNA in C4-2B MR cells,total AR mRNA; 0.20 μM,47%
same,Percent inhibition of full-length AR mRNA in C4-2B MR cells,total AR mRNA; 1.00 μM,88%
same,Percent inhibition of full-length AR mRNA in C4-2B MR cells,total AR mRNA; 5.00 μM,91%
